The results in this text go back to ChEMBL document CHEMBL4052776, “Discovery of 3-morpholino-imidazole[1,5-a]pyrazine BTK inhibitors for rheumatoid arthritis” (Bioorg Med Chem Lett, 2017).

Data set [1] addresses Tyrosine-protein kinase Blk (Homo sapiens, UniProt P51451). The experiment in a line: Inhibition of BLK (unknown origin).
For data set [2], the species on record is Homo sapiens. The experiment in a line: Selectivity ratio of IC50 for BLK (unknown origin) to IC50 for BTK (unknown origin).
Data set [3] is filed under the species Homo sapiens. Description: Selectivity ratio of IC50 for CSK (unknown origin) to IC50 for BTK (unknown origin).
Data set [4] concerns the target Tyrosine-protein kinase Fgr (Homo sapiens, UniProt P09769). Description: Inhibition of FGR (unknown origin).
The species entered for data set [5] is Homo sapiens. The experiment in a line: Selectivity ratio of IC50 for FGR (unknown origin) to IC50 for BTK (unknown origin).
In data set [6] the target is Tyrosine-protein kinase Fyn (Homo sapiens, UniProt P06241). Description: Inhibition of FYN (unknown origin).
Chain of Tyrosine-protein kinase Fyn (P06241 whole entry): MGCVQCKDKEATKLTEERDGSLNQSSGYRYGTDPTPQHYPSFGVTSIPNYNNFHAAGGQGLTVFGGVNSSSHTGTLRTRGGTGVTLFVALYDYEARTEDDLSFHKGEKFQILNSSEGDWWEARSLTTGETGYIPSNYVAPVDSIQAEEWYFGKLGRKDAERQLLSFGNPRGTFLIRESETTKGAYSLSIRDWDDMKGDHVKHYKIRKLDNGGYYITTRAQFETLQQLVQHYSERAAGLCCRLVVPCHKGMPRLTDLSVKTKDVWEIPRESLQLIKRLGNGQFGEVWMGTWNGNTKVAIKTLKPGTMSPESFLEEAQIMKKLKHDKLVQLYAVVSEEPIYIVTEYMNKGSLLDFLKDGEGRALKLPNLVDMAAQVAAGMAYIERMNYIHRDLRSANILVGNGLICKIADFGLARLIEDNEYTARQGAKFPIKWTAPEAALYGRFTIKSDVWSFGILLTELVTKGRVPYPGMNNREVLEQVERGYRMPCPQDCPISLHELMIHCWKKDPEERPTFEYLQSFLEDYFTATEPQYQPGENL
The target in data set [7] is Tyrosine-protein kinase Lck (Homo sapiens, UniProt P06239). Description: Inhibition of LCK (unknown origin).
Chain of Tyrosine-protein kinase Lck (P06239 whole entry): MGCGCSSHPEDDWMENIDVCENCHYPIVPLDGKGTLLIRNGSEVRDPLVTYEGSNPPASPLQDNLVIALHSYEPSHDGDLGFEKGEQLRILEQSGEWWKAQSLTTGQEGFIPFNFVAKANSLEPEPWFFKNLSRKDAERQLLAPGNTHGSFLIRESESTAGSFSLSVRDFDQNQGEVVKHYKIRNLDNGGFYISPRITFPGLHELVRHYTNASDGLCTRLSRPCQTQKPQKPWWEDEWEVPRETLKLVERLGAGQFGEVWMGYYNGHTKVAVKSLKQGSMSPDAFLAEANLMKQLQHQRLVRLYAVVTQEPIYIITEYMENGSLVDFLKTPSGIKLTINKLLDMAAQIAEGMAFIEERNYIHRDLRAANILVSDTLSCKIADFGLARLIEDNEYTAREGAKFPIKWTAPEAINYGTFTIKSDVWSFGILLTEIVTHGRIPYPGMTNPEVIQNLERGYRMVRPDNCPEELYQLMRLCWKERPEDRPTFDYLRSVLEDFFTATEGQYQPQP
For data set [8], the target named is Protein-tyrosine kinase 6 (Homo sapiens, UniProt Q13882). Description: Inhibition of PTK6 (unknown origin).
Chain of Protein-tyrosine kinase 6 (Q13882 whole entry): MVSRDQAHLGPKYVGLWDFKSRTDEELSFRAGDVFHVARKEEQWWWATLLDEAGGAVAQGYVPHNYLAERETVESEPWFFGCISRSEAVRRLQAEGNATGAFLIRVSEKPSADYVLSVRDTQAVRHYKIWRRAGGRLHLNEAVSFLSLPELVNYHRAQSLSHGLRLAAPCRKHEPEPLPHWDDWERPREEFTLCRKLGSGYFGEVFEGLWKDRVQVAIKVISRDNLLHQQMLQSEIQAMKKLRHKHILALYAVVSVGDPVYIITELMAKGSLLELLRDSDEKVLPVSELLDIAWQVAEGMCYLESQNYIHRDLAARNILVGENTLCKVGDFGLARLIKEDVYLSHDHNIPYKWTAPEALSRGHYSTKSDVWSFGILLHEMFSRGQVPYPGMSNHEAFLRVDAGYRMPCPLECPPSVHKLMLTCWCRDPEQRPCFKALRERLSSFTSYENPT
For data set [9], the species on record is Homo sapiens. Description: Selectivity ratio of IC50 for PTK6 (unknown origin) to IC50 for BTK (unknown origin).
The target of data set [10] is Proto-oncogene tyrosine-protein kinase Src (Homo sapiens, UniProt P12931). Description: Inhibition of SRC (unknown origin).
Chain of Proto-oncogene tyrosine-protein kinase Src (P12931 2-536 limits assumed): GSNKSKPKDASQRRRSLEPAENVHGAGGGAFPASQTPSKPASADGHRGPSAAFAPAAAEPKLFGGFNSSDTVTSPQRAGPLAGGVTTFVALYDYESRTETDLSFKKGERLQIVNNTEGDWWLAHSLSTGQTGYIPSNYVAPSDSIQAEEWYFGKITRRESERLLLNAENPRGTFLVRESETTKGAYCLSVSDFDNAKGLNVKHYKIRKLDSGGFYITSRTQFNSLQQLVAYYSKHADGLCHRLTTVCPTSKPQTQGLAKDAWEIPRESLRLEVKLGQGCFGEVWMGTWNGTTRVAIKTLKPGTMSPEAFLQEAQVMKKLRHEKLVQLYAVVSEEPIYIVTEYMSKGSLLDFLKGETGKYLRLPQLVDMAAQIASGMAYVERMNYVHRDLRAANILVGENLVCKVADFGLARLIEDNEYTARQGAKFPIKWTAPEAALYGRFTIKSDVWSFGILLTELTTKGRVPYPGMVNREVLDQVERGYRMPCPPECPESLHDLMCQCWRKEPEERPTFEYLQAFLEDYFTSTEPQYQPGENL
The target of data set [11] is Tyrosine-protein kinase Srms (Homo sapiens, UniProt Q9H3Y6). The experiment in a line: Inhibition of SRMS (unknown origin).
Chain of Tyrosine-protein kinase Srms (Q9H3Y6 whole entry): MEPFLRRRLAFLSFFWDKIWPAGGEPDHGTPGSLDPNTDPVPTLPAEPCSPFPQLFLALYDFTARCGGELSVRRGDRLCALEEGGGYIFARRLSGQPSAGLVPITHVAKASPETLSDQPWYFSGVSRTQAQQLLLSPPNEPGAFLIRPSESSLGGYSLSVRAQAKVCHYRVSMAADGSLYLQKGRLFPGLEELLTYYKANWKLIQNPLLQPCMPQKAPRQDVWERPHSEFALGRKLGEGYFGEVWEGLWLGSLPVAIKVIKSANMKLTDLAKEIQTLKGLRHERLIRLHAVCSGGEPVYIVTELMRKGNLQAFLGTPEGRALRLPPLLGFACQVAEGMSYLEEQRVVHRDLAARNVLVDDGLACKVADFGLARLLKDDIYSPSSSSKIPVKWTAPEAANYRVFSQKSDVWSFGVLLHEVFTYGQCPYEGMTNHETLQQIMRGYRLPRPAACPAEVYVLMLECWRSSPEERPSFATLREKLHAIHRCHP
Data set [12] is filed under the species Homo sapiens. The experiment in a line: Selectivity ratio of IC50 for TXK (unknown origin) to IC50 for BTK (unknown origin).
A short description of data set [13]: Oral bioavailability in rat at 10 mg/kg. Type of data set: ADME, organism-based. The following applies: in vivo.
Data set [14] in a line: Total clearance in dog plasma at 2 mg/kg. It is filed as ADME, organism-based, Canis lupus familiaris.
A short description of data set [15]: Oral bioavailability in dog at 2 mg/kg. Type of data set: ADME, organism-based, Canis lupus familiaris. The note with it: in vivo.

Chain of Tyrosine-protein kinase Fgr (P09769 whole entry): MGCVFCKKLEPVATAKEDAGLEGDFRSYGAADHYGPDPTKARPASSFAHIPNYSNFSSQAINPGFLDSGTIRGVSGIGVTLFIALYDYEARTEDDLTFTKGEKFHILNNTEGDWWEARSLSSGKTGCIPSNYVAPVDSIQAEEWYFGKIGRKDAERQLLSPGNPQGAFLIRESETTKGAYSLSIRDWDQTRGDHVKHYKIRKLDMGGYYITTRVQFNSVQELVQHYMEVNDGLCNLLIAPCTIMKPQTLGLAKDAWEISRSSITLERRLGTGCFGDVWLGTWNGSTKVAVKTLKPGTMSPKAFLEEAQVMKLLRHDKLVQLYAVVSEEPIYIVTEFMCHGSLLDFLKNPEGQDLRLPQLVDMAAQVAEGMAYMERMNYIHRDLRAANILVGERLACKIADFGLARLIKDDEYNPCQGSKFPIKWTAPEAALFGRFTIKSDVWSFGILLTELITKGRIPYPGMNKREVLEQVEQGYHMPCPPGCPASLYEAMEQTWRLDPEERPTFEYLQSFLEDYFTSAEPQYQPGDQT
Chain of Tyrosine-protein kinase Blk (P51451 whole entry): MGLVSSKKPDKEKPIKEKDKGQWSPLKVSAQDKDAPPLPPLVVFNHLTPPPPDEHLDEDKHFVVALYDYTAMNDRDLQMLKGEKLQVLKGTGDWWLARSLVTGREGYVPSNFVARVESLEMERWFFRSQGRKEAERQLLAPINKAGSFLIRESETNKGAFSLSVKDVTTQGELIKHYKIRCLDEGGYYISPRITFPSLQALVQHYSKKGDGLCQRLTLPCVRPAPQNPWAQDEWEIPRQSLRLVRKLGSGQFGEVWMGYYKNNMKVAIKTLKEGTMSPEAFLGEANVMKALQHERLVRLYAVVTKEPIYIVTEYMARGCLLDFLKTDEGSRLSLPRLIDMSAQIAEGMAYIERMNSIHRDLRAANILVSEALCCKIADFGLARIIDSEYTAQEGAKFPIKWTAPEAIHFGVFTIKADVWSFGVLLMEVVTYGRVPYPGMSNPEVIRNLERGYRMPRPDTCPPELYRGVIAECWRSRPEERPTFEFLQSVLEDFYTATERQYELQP

Turning to `CC(C)C(=O)N1CCO[C@@H](c2nc(-c3ccc(C(=O)Nc4cc(C(F)(F)F)ccn4)cc3F)c3c(N)nccn23)C1`, the IC50 came out at 280 nM in data set [1]; 268 nM in [4]; 1900 nM in data set [6]; 100 nM in data set [7]; 173 nM in data set [8]; 512 nM in [10]. Also, in [11], the midpoint of inhibition, the IC50, lay at 103 nM. For the same compound, the Ratio IC50 in [2] stood at 636; in data set [3], 4880; in data set [5] it was 610; in [9], 393; in [12] it was 1060. Also, the bioavailability in data set [13] was 87%; in [15], 89%. Moreover, in data set [14], the clearance was 4.8 mL/min/kg.
